From US11155514B1, “Pleuromulin acitretin ester with antibacterial activity and a method of preparing the same” (SHAANXI UNIVERSITY OF SCIENCE AND TECHNOLOGY, priority 2020, dated 2021)
Converted amounts (≈) assume the structure as drawn. Like-named read-outs stand apart in the source and are kept apart here.

Tests used:
Type in all cases: cell-based
[1] = test system: carbapenem-resistant Acinetobacter baumannii CR-AB 18-183; test: MIC by microbroth dilution, CR-AB 18-183; conditions: for MIC: Acinetobacter baumannii, read-out: Minimum bacteriostatic concentration (MIC)
Experimental: (§1) The minimal inhibitory concentration (MIC) of the compounds was determined by a microbroth dilution method with gentamicin, cefazolin sodium and ceftriaxone sodium as positive controls.
(§2) The experimental strains included methicillin-resistant Gram-positive bacteria: methicillin-resistant Staphylococcus aureus MRSA 18-222, 18-575; multiple drug-resistant Gram-negative bacteria: […], multidrug-resistant Pseudomonas aeruginosa MDR-PA 18-174,18-202, carbapenem-resistant Acinetobacter baumannii CR-AB 18-183,18-560. All the experimental strains were donated by Huashan Hospital affiliated to Fudan University (Institute of antibiotics, Fudan University) and used after routine identification.
(§3) Preparation of Test Strains:
(§4) Preparation of MHB medium: 20.0 g MHB medium was added to 1 L distilled water, boiled until completely dissolved, packed in conical bottles and sterilized at 121° C. for 15 min.
(§5) The experimental strain was cultured to the logarithmic growth phase: under aseptic condition, the experimental strain was inoculated into 100 mL MHB medium and incubated in a constant temperature and humidity incubator at 37° C. for 20-22 hours.
(§6) Preparation of storage solution: weigh the sample to be tested, dissolve it with 1% DMSO solution, prepare a storage solution with a concentration of 2560 μg/mL, weigh a positive reference substance, dissolve it with aseptic distilled water, and configure a storage solution with a concentration of 2560 μg/mL.
(§7) Preparation of bacterial suspension: under aseptic condition, the experimental strains cultured to logarithmic growth phase were adjusted to 0.5 MCF turbidity standard with MHB medium and diluted according to 1:10, and the bacterial suspension with concentration of 10^6 CFU/mL was prepared for standby.
(§8) Stock solution dilution and inoculation of experimental strains: under aseptic conditions, dilute the stock solution to a solution of 256 μg/mL. Take a sterile 96-well plate, add 100 μL of MHB medium to each well except for the first and second wells; add 100 μL of positive control solution to the first well, and add 100 μL of compound sample solution to the second and third wells; Mix the sample solution in the 3 wells with the medium, and then pipet 100 μL to the 4th well, and then pipet 100 μL to the 5th well after mixing, and then dilute to the 9th well in a series of times, and draw 100 μL from the 9th well and discard, the 10th well is a growth control without drugs; then, add 100 μL of the above-prepared bacterial suspension to each well to make the final bacterial concentration of each well 5×10^5 CFU/mL; so far, the positive control concentration is 128 μg/mL, the concentration of the sample solution is 128, 64, 32, 16, 8, 4, 2, 1 μg/mL.
(§9) Incubation: Cover the 96-well plate inoculated with the experimental strains, and incubate in a constant temperature and humidity box at 37° C. for 20-22 hours.

[2] = test system: multidrug-resistant Pseudomonas aeruginosa MDR-PA 18-202; test: MIC by microbroth dilution, MDR-PA 18-202
Experimental: as §1, §2, §3, §4, §5, §6, §7, §8, §9
(§10) In FIGS. 1-2, the ten wells represent ten groups, from left to right, positive, 128 μg/mL, 64 μg/mL, 32 μg/mL, 16 μg/mL, 8 μg/mL, 4 μg/mL, 2 μg/mL, 1 μg/mL, Negative.

[3] = test system: methicillin-resistant Staphylococcus aureus MRSA 18-222; test: MIC by microbroth dilution, MRSA 18-222; conditions: for MIC: Staphylococcus aureus, read-out: Minimum bacteriostatic concentration (MIC)
Experimental: as §1, §2, §3, §4, §5, §6, §7, §8, §9

[4] = test system: multidrug-resistant Pseudomonas aeruginosa MDR-PA 18-174; test: MIC by microbroth dilution, MDR-PA 18-174; conditions: for MIC: Pseudomonas aeruginosa, read-out: Minimum bacteriostatic concentration (MIC)
Experimental: as §1, §2, §3, §4, §5, §6, §7, §8, §9

[5] = test system: carbapenem-resistant Acinetobacter baumannii CR-AB 18-560; test: MIC by microbroth dilution, CR-AB 18-560; conditions: for MIC: Acinetobacter baumannii, read-out: Minimum bacteriostatic concentration (MIC)
Experimental: as §1, §2, §3, §4, §5, §6, §7, §8, §9

[6] = test system: vancomycin-resistant enterococci VRE 18-94; test: MIC by microbroth dilution, VRE 18-94; conditions: for MIC: Enterococcus, read-out: Minimum bacteriostatic concentration (MIC)
Experimental: as §1, §2, §3, §4, §5, §6, §7, §8, §9

[7] = test system: vancomycin-resistant enterococci VRE 18-80; test: MIC by microbroth dilution, VRE 18-80; conditions: for MIC: Enterococcus, read-out: Minimum bacteriostatic concentration (MIC)
Experimental: as §1, §2, §3, §4, §5, §6, §7, §8, §9

[8] = test system: methicillin-resistant Staphylococcus aureus MRSA 18-575; test: MIC by microbroth dilution, MRSA 18-575
Experimental: as §1, §2, §3, §4, §5, §6, §7, §8, §9, §10

drug-resistant bacteria = test: Antibacterial activity test, summary over all experimental strains; conditions: text summary of FIG. 1-2 and Table 1
Experimental: as §1, §2, §3, §4
The experimental strain was cultured to the logarithmic growth phase: under aseptic condition, the experimental strain was inoculated into 100 mL MHB medium and incubated in a constant temperature and humidity incubator at 37° C. for 20-22 hours. […]

[9] = strain CR-AB 18-183, 37° C., 20-22 hours
[10] = Pseudomonas aeruginosa, strain MDR-PA 18-202, 37° C., 20-22 hours, read-out: Minimum bacteriostatic concentration (MIC)
[11] = strain MRSA 18-222, 37° C., 20-22 hours
[12] = strain MDR-PA 18-174, 37° C., 20-22 hours
[13] = strain CR-AB 18-560, 37° C., 20-22 hours
[14] = strain VRE 18-94, 37° C., 20-22 hours
[15] = strain VRE 18-80, 37° C., 20-22 hours
[16] = Staphylococcus aureus, strain MRSA 18-575, 37° C., 20-22 hours, read-out: Minimum bacteriostatic concentration (MIC)

Compound | MIC [1, 9] [µg/mL] | MIC [2, 10] [µg/mL] | MIC [3, 11] [µg/mL] | MIC [4, 12] [µg/mL] | MIC [5, 13] [µg/mL] | MIC [6, 14] [µg/mL] | MIC [7, 15] [µg/mL] | MIC [8, 16] [µg/mL] | inhibitory effect on drug-resistant bacteria (drug-resistant bacteria) | further results
Cc1nnc(SCC2=C(C(=O)O)N3C(=O)[C@@H](NC(=O)Cn4cnnn4)[C@H]3SC2)s1 [Cefazolin sodium] | > 128 | 128 | > 128 | 8 | > 128 | > 128 | 32 | > 128 | – | –
CO/N=C(\C(=O)N[C@@H]1C(=O)N2C(C(=O)O)=C(CSc3nc(=O)c(=O)[nH]n3C)CS[C@H]12)c1csc(N)n1 [Ceftriaxone sodium] | > 128 | 16 | > 128 | 128 | > 128 | > 128 | 8 | > 128 | – | –
C=C[C@]1(C)C[C@@H](OC(=O)CO)[C@]2(C)[C@H](C)CC[C@]3(CCC(=O)[C@H]32)[C@@H](C)[C@@H]1O [Pleuromulin] | > 128 | > 128 | > 128 | > 128 | > 128 | > 128 | > 128 | > 128 | no inhibitory effect | –
C=C[C@]1(C)C[C@@H](OC(=O)COC(=O)/C=C(C)/C=C/C=C(C)/C=C/c2c(C)cc(OC)c(C)c2C)[C@]2(C)CC[C@@H](C)C3(CCC(=O)[C@H]32)[C@@H](C)[C@@H]1O [Pleuromulin acitretinester, (2E,4E,6E,8E)-2-(((4R,5S,6S,8R,9R,9aR,12R)-5-hydroxy-4,6,9,12-tetramethyl-1-oxo-6-vinyldecahydro-3a,9-propanocyclopenta[8]annulen-8-yl)oxy)-2-oxoethyl 9-(4-methoxy-2,3,6-trimethylphenyl)-3,7-dimethylnona-2,4,6,8-tetraenoate] | > 128 | 128 (≈ 186 µM) | > 128 | > 128 | > 128 | > 128 | > 128 | 64 (≈ 93.2 µM) | – | MIC ([2]; multi-drug resistant Pseudomonas aeruginosa MDR-PA, strain not named, read-out: MIC): 128 µg/mL (≈ 186 µM); MIC ([8]; multi-drug resistant Staphylococcus aureus MRSA, strain not named, read-out: MIC): 64 µg/mL (≈ 93.2 µM)
COc1cc(C)c(/C=C/C(C)=C/C=C/C(C)=C/C(=O)O)c(C)c1C [Acitretin] | – | – | – | – | – | – | – | – | no inhibitory effect | MIC [1]: > 128 µg/mL; MIC ([2]; Pseudomonas aeruginosa, read-out: Minimum bacteriostatic concentration (MIC)): > 128 µg/mL; MIC ([3]; MRSA): > 128 µg/mL; MIC [4]: > 128 µg/mL; MIC [5]: > 128 µg/mL; MIC ([6]; VRE): > 128 µg/mL; MIC ([7]; VRE): > 128 µg/mL; MIC ([8]; Staphylococcus aureus, MRSA, read-out: Minimum bacteriostatic concentration (MIC)): > 128 µg/mL
Gentamicin | – | – | – | – | – | – | – | – | – | Minimum bacteriostatic concentration (MIC) [1, 9]: >128 µg/mL; Minimum bacteriostatic concentration (MIC) ([2]; strain MDR-PA 18-202, 37° C., 20-22 hours): 0.0625 µg/mL; Minimum bacteriostatic concentration (MIC) [3, 11]: 128 µg/mL; Minimum bacteriostatic concentration (MIC) [4, 12]: 0.0625 µg/mL; Minimum bacteriostatic concentration (MIC) [5, 13]: >128 µg/mL; Minimum bacteriostatic concentration (MIC) [6, 14]: >128 µg/mL; Minimum bacteriostatic concentration (MIC) [7, 15]: 0.0625 µg/mL; Minimum bacteriostatic concentration (MIC) ([8]; strain MRSA 18-575, 37° C., 20-22 hours): 2 µg/mL
